The values below come from patent publication US7910723B2, “IG20 splice variants therapeutics for cancer” (The Board of Trustees of the University of Illinois, priority 2006, dated 2011).

Type in all cases: cell-based
In data set [1] the test system is caspase-8. Kind of data set: TRAIL-induced DISC immunoprecipitation from HeLa cells, immunoblot. The conditions noted are these: 250 ng TRAIL 30 min, relative to SCR. Here is the method: To more specifically analyze the DISC associated with TRAIL-bound death receptors, TRAIL-induced DISC was immunoprecipitated from HeLa cells using a biotinylated-antibody specific for TRAIL from HeLa cells that were either left untreated or treated with 250 ng of TRAIL for 30 min. Complexes were separated on 12% SDS-PAGE and subjected to immunoblotting with various antibodies that can specifically react with specific DISC components. Increased recruitment of FADD and pro-caspase-8 was observed after TRAIL treatment. […] However, increased caspase-8 activation (p43/41) was more apparent only upon MADD down-modulation.
Characterization of DISC immunoprecipitated using anti-TRAIL antibody. HeLa (2×10^7) cells transduced for 36 h were treated with 250 ng of TRAIL (Peprotech) for 30 minutes either at 4° C. (untreated) or at 37° C. (treated), collected, washed in cold PBS and lysed in 1 mL lysis buffer for 30 minutes on ice. The lysates were clarified and then normalized for protein concentration. The DISC was then immunoprecipitated overnight using 2 μg/mL of anti-TRAIL-biotinylated antibody. The biotinylated antibody was immunoprecipitated with 35 μL of 50% slurry of streptavidin agarose beads. The beads were washed three times with lysis buffer, boiled in SDS sample buffer and separated on a 12% SDS-PAGE gel for immunoblot analysis.
For orientation: Immunoblotting shows a protein as a band on a membrane.

The test system of data set [2] is DR4. Kind of data set: Association of exogenous MADD with DR4 in HEK293 cells (immunoprecipitation). As to the method:
(A) Phosphorylation status of MADD could influence its binding to DR4. HEK293 cells were transfected with wtMADD or MADD mutants. 36 h after transfection, the cells were harvested for immunoprecipitation using an anti-DR4 antibody followed by immunoblotting using an anti-YFP antibody to detect exogenous MADD. The membrane was reprobed with an anti-DR4 antibody to show the protein loading. (B) PI3K can influence the association of exogenous MADD with DR4. HEK293 cells were transfected with wtMADD. Twenty four hours after transfection, the cells were serum starved for 20 h. Further, they were treated with LY (10 μM) for 1 h, IGF-1 (150 ng/ml) for 20 minutes. Immunoprecipitation using an anti-DR4 antibody was followed by immunoblotting using anti-YFP or anti-DR4 antibody. (C) Akt can influence exogenous MADD association with DR4. HEK293 cells were co-transfected with wtMADD along with DN-Akt or the empty vector pcDNA3.1 (pcDNA). Thirty six hours after transfection, the cells were harvested for immunoprecipitation using anti-DR4 antibody followed by immunoblotting with an anti-YFP or an anti-DR4 antibody. (D) PI3K can influence the association of endogenous MADD with DR4. HeLa cells were serum starved for 20 h, then treated with LY (10 μM) for 1 h, IGF-1 (150 ng/ml) for 20 minutes. Immunoprecipitation using an anti-DR4 antibody was followed by immunoblotting with an anti-MADD or an anti-DR4 antibody. (E) Akt can influence the association of endogenous MADD with DR4. HeLa cells were transfected with DN-Akt or pcDNA. Thirty six hours after transfection, the cells were collected for immunoprecipitation using an anti-DR4 antibody followed by immunoblotting with an anti-MADD antibody.
MADD can bind to DR4 and thereby block the activation of the extrinsic apoptotic pathway. […] Stimulation of PI3K by IGF-1 increased, while inhibition by LY reduced, the association between wtMADD and DR4 (FIG. 15B). […] This interaction was reduced in the presence of LY (FIG. 15D) or DN-Akt (FIG. 15E).
Immunoprecipitation. Immunoprecipitations were performed using standard procedures. The samples were precleared with 10% (vol/vol) Protein-A agarose (Roche) for 1 h on a rocking platform. Specific antibodies were added and rocked for 1 h. Immunoprecipitates were captured by incubating with 10% (vol/vol) Protein-A agarose for an hour. The agarose beads were spun down and washed three times with NET/NP40 buffer (150 mM NaCl, 2 mM EDTA, 50 mM Tris-HCl pH 7.5, 0.1% NP-40). The antigens were released and denatured by adding SDS sample buffer. Immunoblots were prepared and analysed as described above.

The test system of data set [3] is 14-3-3. Kind of data set: Association of endogenous MADD with 14-3-3 in HeLa cells (immunoprecipitation). The following applies: LY 10 μM 1 h. As to the method:
(A) Cellular distributions of wtMADD and MADD3A. HEK293 cells were transfected with wtMADD or MADD3A. 36 h after transfection, the cells were harvested and membrane andcytosolic fractions were prepared. Immunoblotting was performed using an anti-YFP antibody. Actin and caveolin-1 were used as loading controls. (B) […]. HEK293 cells were transfected with wtMADD or MADD3A. 36 h after transfection, the cells were harvested for immunoprecipitation using an anti-14-3-3 antibody followed by immunoblotting using an anti-YFP antibody for detecting exogenous MADD. The membrane was reprobed with an anti-14-3-3 antibody to show protein loading. (C) Inhibition of PI3K can lead to the association of wtMADD with 14-3-3. HEK293 cells were transfected with wtMADD. Cells were serum starved for 20 h and treated with LY (10 μM) for 1 h. Immunoprecipitation was performed using an anti-14-3-3 antibody, followed by immunoblotting using an anti-YFP or an anti-14-3-3 antibody. (D) Inhibition of Akt can result in the association of wtMADD with 14-3-3. HEK293 cells were co-transfected with wtMADD along with DN-Akt or pcDNA. […]
To explore the molecular mechanism by which nonphosphorylated MADD can trigger apoptosis, the cellular localization of phosphorylated and nonphosphorylated MADD was determined. […]
Immunoprecipitation. […] Immunoblots were prepared and analysed as described above.

Take “13L-shRNA: shRNA targeting exon 13L (IG20, MADD), 5′ CGGCGAATCTATGACAATC-3′ (SEQ ID NO: 4)”: in data set [1], the “Intermediate fragments of caspase-8 (p43/41) in TRAIL immunoprecipitates” value is “increased levels of intermediate fragments of caspase-8 (p43/41)”. Turning to `O=c1cc(N2CCOCC2)oc2c(-c3ccccc3)cccc12` [LY], the “Association of exogenous MADD with DR4” value in data set [2] is on record as “reduced”. The “Binding of endogenous MADD to 14-3-3” value in data set [3] is recorded as “could bind to 14-3-3 only in the presence, but not in the absence, of LY”.
